The subject of assay [1] is planktonic and biofilm-associated Listeria monocytogenes and Salmonella typhimurium. Conditions: combined with streptomycin; cited from earlier work.
For assay [2], the system named is Pseudomonas aeruginosa, Staphylococcus aureus and Candida albicans. As to the kind of experiment: Antimicrobial efficacy of liposome-encapsulated silver and tea tree oil. In kind it is cell-based. Conditions: singly and in combination, in a controlled release liposomal carrier system. The source says: The aspects, advantages and/or other features of example embodiments of the present disclosure will become apparent to those skilled in the art, in view of the present detailed description. It should be apparent to those skilled in the art that the described embodiments of the present disclosure provided herein are merely exemplary and illustrative and not limiting. Numerous embodiments of modifications thereof are contemplated as falling within the scope of the present disclosure and equivalents thereto. Unless otherwise noted, technical terms are used according to conventional usage. Any publications mentioned in this specification are indicative of the level of those skilled in the art to which the invention pertains and are incorporated by reference in their entirety. […]

Assay [3] concerns biofilms of K. pneumoniae. As to conditions: cited from earlier work.

Consider 6 molecules from patent US20200397711A1, “MICROPARTICLE COMPOSITIONS FOR TREATMENT OF INFECTION OR DISEASE, METHODS OF MAKING THE SAME, AND METHODS OF TREATING SUBJECTS WITH MICROPARTICLE COMPOSITIONS” (priority 2019, published 2020).

As for `COc1ccc2cc3[n+](cc2c1OC)CCc1cc2c(cc1-3)OCO2` [berberine], the interaction with streptomycin entry in assay [1] was “synergistic effect”.
Regarding `O=CC=Cc1ccccc1` [cinnamaldehyde], the interaction with streptomycin result in assay [1] is “synergistic effect”.
With `Cc1ccc(C(C)C)c(O)c1` [thymol], the interaction with streptomycin result in assay [1] is given as “synergistic effect”.
As for `C=CCc1ccc(O)c(OC)c1` [eugenol], in assay [1], the interaction with streptomycin entry is given as “synergistic effect”.
Turning to silver, the “antimicrobial efficacy and effective concentration required” value in assay [2] is reported as “can improve their antimicrobial efficacy as well as reduce the effective concentration required”.
On to `O=C(O)c1cn(C2CC2)c2cc(N3CCNCC3)c(F)cc2c1=O` [ciprofloxacin], for which the inhibition/eradication of biofilms entry in assay [3] is given as “inhibit/eradicate biofilms”.
